± gives the standard deviation.
Assays:
[1] = system: Toxoplasma gondii RH tachyzoites; assay: % growth inhibition vs DMSO (48 h luciferase); higher = more inhibition; conditions: 10 µM
[2] = system: Plasmodium falciparum 3D7; assay: % inhibition of schizont-to-ring transition vs DMSO; higher = more inhibition
How it was run: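 Schizont-to-ring transition inhibition compares new ring formation with that in vehicle controls. Synchronised P. falciparum schizonts (about 40–42 hours post-invasion, 1% parasitemia, 2.5% hematocrit, AlbuMAX-supplemented RPMI) were exposed to 1, 3 or 10 µM compound, after which rings were counted by Hoechst 33342 flow cytometry across three experiments.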

[3] = system: Toxoplasma gondii RH tachyzoites; assay: plaque count per well; higher = less inhibition; extreme values may be limits of the assay; conditions: 10 µM; 8-10 days
Experimental: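 T. gondii RH tachyzoites expressing firefly luciferase were grown in HFF monolayers for 48 h with compound. % growth inhibition at 10 µM and EC50 (2-fold dilutions from 10 µM) were read by luminescence relative to 1% DMSO; EC50 listed as 10 (not determined, <80% inhibition) is left out. Plaque assays: 50 tachyzoites per well with 10 µM compound for 8-10 days, giving plaque count and area by crystal violet/ImageJ. Egress: median time to egress after 1 µM A23187 ionophore following 24 h of 10 µM compound (DMSO ~1.8 min; >10 = no egress within 10 min).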

[4] = system: Plasmodium falciparum 3D7; assay: EC50 growth inhibition (60 h, SYBR Green); conditions: stage: ring-stage start
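Throughout, for % growth inhibition vs DMSO (48 h luciferase): tested in triplicate wells of 96-well plates on confluent HFF monolayers, with 1% DMSO wells as negative control in four replicates.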

Row | Structure (SMILES) | % growth inhibition [1] [%] | % inhibition of schizont-to-ring transition ([2]; 1 µM) [%] | % inhibition of schizont-to-ring transition ([2]; 3 µM) [%] | % inhibition of schizont-to-ring transition ([2]; 10 µM) [%] | plaque count per well [3] | EC50 growth inhibition [4] [nM]
1 | Cc1ccc(C(=O)c2oc3ccc4c(C)cc(=O)oc4c3c2C)cc1 | < 0 | 6.95 | 10.6 | 20.4 | 24 | 
2 | Nc1ccn([C@@H]2O[C@H](CO)[C@@H](O)[C@H]2O)c(=O)n1 | < 0 | 35.8 | 40.5 | 42.6 | 29 | 
3 | CCOC(=O)C1=C(C)N=c2sc(=Cc3ccccc3O)c(=O)n2C1c1ccc(OC)c2ccccc12 (stereo not given) | 4.31 ± 0.81 | 13.3 | 53.1 | 60.5 | 18 | 
4 | CC(C)CNC(=O)c1c(N)n(CCc2ccccc2F)c2nc3ccccc3nc12 | < 0 | < 0 | < 0 | 15 | 28 | 
5 | CCN(CC)S(=O)(=O)c1ccc(-c2csc(Nc3ccc(C)c(C)c3)n2)cc1 | 71.8 ± 4.9 | 5.05 | 6.93 | 26.5 | 26 | 
6 | O=C(Nc1ccsc1C(=O)NC1CCCCC1)c1ccc(F)cc1 | < 0 | 4.95 | 8.54 | 14.8 | 20 | 
7 | CC(C)(C)c1ccc(C(=O)Nc2nc3ccccc3s2)cc1 | 12.1 ± 13 | 44.3 | 45.2 | 54.4 | 33 | 
8 | COc1ccc(CCNC(=O)c2cc(S(=O)(=O)N3CC(C)CC(C)C3)ccc2Sc2ccc(F)cc2)cc1OC (stereo not given) | 11.7 ± 10 | 11.3 | 12.5 | 22.9 | 28 | 
9 | CCOc1ccccc1NC(=O)CN1CCN(C(=O)c2ccco2)CC1 | < 0 | 43.4 | 49.8 | 60 | 35 | 
10 | Cc1ccc(-c2nc3ccccc3o2)cc1NCc1cc(Cc2ccccc2)ccc1O | < 0 | 36.5 | 47.5 | 56.6 | 36 | 
11 | COc1ccc(C2N(C)c3ccccc3N2C)cc1 | 15.2 ± 13 | < 0 | < 0 | 11.8 | 28 | 
12 | c1ccc2cc3c(Nc4ccc(N5CCOCC5)cc4)ccnc3cc2c1 | 60.2 ± 14 | 36.9 | 52.5 | 60.8 |  | 2510
13 | Cc1ccc(Nc2nc(-c3ccccn3)cs2)cc1 | 99.62 ± 0.17 | 24.9 | 40.7 | 28.2 |  | 3060
14 | CC1CC(C)CN(C(=O)c2ccc(Cl)cc2Cl)C1 (stereo not given) | 31.6 ± 5 | < 0 | < 0 | 13.8 |  | 1020
15 | COc1cccc(Cn2c(Oc3ccccc3)nc3c2c(=O)n(C)c(=O)n3C)c1 | 72.4 ± 4.8 | 23.6 | 27.1 | 45.9 |  | 516
16 | COc1cc(SC)ccc1C(=O)N1CCCC(C)C1 (stereo not given) | 33.1 ± 4.9 | 0.295 | < 0 | 12.1 |  | 3240
17 | CCOc1ccc2c(c1)CN(Cc1ccc(Cl)cc1)CO2 | 24.6 ± 13 | < 0 | 11.2 | 31.5 |  | 3960
18 | CC1CCCCN1CCCNC(=O)c1ccc2c(c1)sc1nc(-c3ccc(F)cc3)cn12 (stereo not given) | 48.7 ± 9.3 | 15.8 | 61.1 | 73.1 |  | 400
19 | COc1ccc(C(C)=O)cc1N1C(=O)C2C(C1=O)C1(c3ccccc3)C(=O)C2(c2ccccc2)C(c2ccc(C)cc2)=C1c1ccc(C)cc1 (stereo not given) | 79.2 ± 1.3 | 7.25 | 20.5 | 44.9 |  | 273
20 | COc1cc2cc(C(=O)Nc3ccccc3)c(N)nc2cc1OC | 78.1 ± 1.2 | 8.51 | 35.6 | 57.9 |  | 847
21 | CC(=O)c1sc(NC(=O)Nc2ccc(C)cc2C)nc1C | 67.5 ± 3.4 | 10.5 | 30.8 | 49.7 |  | 1780
22 | CCOc1cc2c(cc1OCC)C(c1cc(Cl)ccc1O)NCC2 (stereo not given) | 46.8 ± 4.8 | 3.63 | 17.7 | 64.1 |  | 1800
23 | N=c1c2ccccc2nnn1-c1cccc(C(F)(F)F)c1 | 64.1 ± 4.6 | 44.5 | 48.1 | 54.3 |  | 5760
24 | c1ccc(Cn2c(N=Nc3c(Nc4ccccc4)ccc4ccccc34)nc3ccccc32)cc1 | 29.1 ± 12 | 14.6 | 25.9 | 52.2 |  | 3520
25 | CCOc1cccc2sc(N(Cc3cccnc3)C(=O)C3CCCCC3)nc12 | 29.9 ± 10 | 35.3 | 38.9 | 56.6 |  | 4280
26 | CN1CCN(c2ncnc3c2[nH]c2ccc(Cl)cc23)CC1 | 28.6 ± 4.2 | 34 | 43.8 | 54.7 |  | 894
27 | CCCCN(CCCC)S(=O)(=O)c1ccc(NC(=O)c2ccco2)cc1 | 74.8 ± 2.1 | 20 | 26.6 | 50.7 |  | 1530
28 | CN(C)CCNc1cc(-c2ccccc2)nc2ccccc12 | 66.7 ± 1.5 | 6.36 | 21.7 | 63.2 |  | 936
